Patent US20250194651A1, “STEVIOL GLYCOSIDE CONCENTRATES AND HIGHLY SOLUBLE STEVIOL GLYCOSIDES” (CARGILL, INCORPORATED, priority 2022, published 2025)
Like-named read-outs stand apart in the source and are kept apart here.

Tests used:
[1] = Long-term solution stability (visual crystallization/precipitation time); type: physicochemical; conditions: for time until solution crashes out: solution of 1%
Procedure: (§1) Solutions were prepared by mixing one or more steviol glycoside component in purified water at ambient temperature. Solubility enhancers, preservatives, or ethanol were included only where expressly indicated and, when used, were added to the initial mixture prior to heating and dissolution. The mixtures were premixed and then subsequently heated via heat block or oven. Solutions took approximately one or two minutes to reach the target temperature, and then were maintained at the target temperature at least until complete dissolution of solids. Dissolution of solids was monitored visually during heating. After the heating period, fully dissolved solutions were permitted to cool to room temperature and were monitored for initial precipitation.
Solutions were further monitored for stability over periods of hours, days, weeks, and longer. Multiple techniques were utilized to evaluate stability. […] Solutions were also evaluated by recovering dissolved solids and then calculating percent recovery. If necessary, the solutions were filtered to remove undissolved material to assure that percent recovery reflected only dissolved steviol glycosides.
The rebaudioside M and A blend was further observed hourly for the first several hours, then monitored daily to evaluate long-term stability. Steviol glycoside binary blends in aqueous solvent (1%) were prepared from as an […].
Amounts of rebaudioside M and rebaudioside A in varying ratios were combined with purified water at room temperature and then heated to 85° C. with a heating block to effect dissolution. For example, for batches formulated to provide a concentration of about 10% DS, approximately 25 mg of each of rebaudioside M and rebaudioside A were dissolved in 500 μL of purified water. Samples were monitored until crystallization occurred or for at least 40 days. Solutions that remained clear and free of visible precipitation are identified in the tables below.
Steviol glycoside solutions of rebaudioside M and rebaudioside A were tested to determine if non-aqueous solvent was beneficial or detrimental to solution stability. Ingredients were combined in purified water at room temperature then heated to 85° C. with a heating block to effect dissolution. The solution was allowed to cool to ambient temperature, and then visually monitored for precipitation.

[2] = Initial solubility in aqueous solution (visual dissolution on heating); type: physicochemical
Procedure: as §1
Various individual steviol glycosides were tested to evaluate initial solubility in aqueous solution as well as the long-term stability in solution. Ingredients were combined in purified water at room temperature then heated to 85° C. with a heating block to effect dissolution. […]

[3] = Aqueous solubility (background values); type: physicochemical; conditions: heating in near boiling water for 2 hours
[4] = cited from earlier work
[5] = 0.49% DS, after dissolution at 85° C.
[6] = conventional formulations, aqueous solution at 25° C., WO 2017/120480 A1

In the case of `C=C1C[C@@]23CC[C@H]4[C@@](C)(CCC[C@@]4(C)C(=O)O[C@@H]4O[C@H](CO)[C@@H](O)[C@H](O)[C@H]4O[C@@H]4O[C@H](CO)[C@@H](O)[C@H](O)[C@H]4O)[C@@H]2CC[C@]1(O[C@@H]1O[C@H](CO)[C@@H](O)[C@H](O)[C@H]1O[C@@H]1O[C@H](CO)[C@@H](O)[C@H](O)[C@H]1O)C3` [E, rebaudioside E], the “Crystallization Time” value [1, 5] is reported as 336 h.
In the case of `C=C1C[C@@]23CC[C@H]4[C@@](C)(CCC[C@@]4(C)C(=O)O[C@@H]4O[C@H](CO)[C@@H](O)[C@H](O)[C@H]4O[C@@H]4O[C@@H](C)[C@H](O)[C@@H](O)[C@H]4O)[C@@H]2CC[C@]1(O[C@@H]1O[C@H](CO)[C@@H](O)[C@H](O[C@@H]2O[C@H](CO)[C@@H](O)[C@H](O)[C@H]2O)[C@H]1O[C@@H]1O[C@H](CO)[C@@H](O)[C@H](O)[C@H]1O)C3` [J, rebaudioside J], the “Soluble?” value [2] is reported as “Y”, the dissolution ([2]; 1% solution, purified water, heated to 85° C.) is reported as “failed to dissolve” and the “Crystallization Time” value ([1]; 0.53% DS, after dissolution at 85° C.) is reported as less than 2 h.
With `C=C1C[C@@]23CC[C@H]4[C@@](C)(CCC[C@@]4(C)C(=O)O[C@@H]4O[C@H](CO)[C@@H](O)[C@H](O)[C@H]4O[C@@H]4O[C@H](CO)[C@@H](O)[C@H](O)[C@H]4O)[C@@H]2CC[C@]1(O[C@@H]1O[C@H](CO)[C@@H](O)[C@H](O[C@@H]2O[C@H](CO)[C@@H](O)[C@H](O)[C@H]2O)[C@H]1O[C@@H]1O[C@H](CO)[C@@H](O)[C@H](O)[C@H]1O)C3` [D, rebaudioside D] the dissolution ([2]; 1% DS in water, heated to 85° C. for 20 minutes, cooled to room temperature (FIG. 1)) was “failed to dissolve”, the dissolution ([2]; 1% DS in water, heated to 85° C. for 20 minutes, cooled to room temperature (FIG. 1), listed as Reb D) was “cannot achieve dissolution” and the “Crystallization Time” value ([1]; 0.48% DS (Reb D), 0.5% DS (Total)) was less than 2 h. The “Crystallization Time” value ([1]; 0.48% DS, after dissolution at 85° C.) was less than 2 h, the concentration temporarily dissolved [3] was 0.8 wt % and the “dissolved content in aqueous solution” value [4, 6] was “about 0.05 wt %”.
With `C=C1C[C@@]23CC[C@H]4[C@@](C)(CCC[C@@]4(C)C(=O)O[C@@H]4O[C@H](CO)[C@@H](O)[C@H](O[C@@H]5O[C@H](CO)[C@@H](O)[C@H](O)[C@H]5O)[C@H]4O[C@@H]4O[C@H](CO)[C@@H](O)[C@H](O)[C@H]4O)[C@@H]2CC[C@]1(O[C@@H]1O[C@H](CO)[C@@H](O)[C@H](O[C@@H]2O[C@H](CO)[C@@H](O)[C@H](O)[C@H]2O)[C@H]1O[C@@H]1O[C@H](CO)[C@@H](O)[C@H](O)[C@H]1O)C3` [M (RM01), rebaudioside M] the “Soluble?” value [2] was “Y” and the “Crystallization Time” value ([1]; 0.33% DS, after dissolution at 85° C.) was less than 72 h.
With `C=C1C[C@@]23CC[C@H]4[C@@](C)(CCC[C@@]4(C)C(=O)O[C@@H]4O[C@H](CO)[C@@H](O)[C@H](O[C@@H]5O[C@H](CO)[C@@H](O)[C@H](O)[C@H]5O)[C@H]4O[C@@H]4O[C@@H](C)[C@H](O)[C@@H](O)[C@H]4O)[C@@H]2CC[C@]1(O[C@@H]1O[C@H](CO)[C@@H](O)[C@H](O[C@@H]2O[C@H](CO)[C@@H](O)[C@H](O)[C@H]2O)[C@H]1O[C@@H]1O[C@H](CO)[C@@H](O)[C@H](O)[C@H]1O)C3` [N, rebaudioside N] the “Soluble?” value [2] was “Y” and the “Crystallization Time” value [1, 5] was less than 1 h.
In the case of rebaudioside B, the “Crystallization Time” value ([1]; 0.47% DS, heated to 85° C.) is reported as “Immediate”.
In the case of `C=C1C[C@@]23CC[C@H]4[C@@](C)(CCC[C@@]4(C)C(=O)O[C@@H]4O[C@H](CO)[C@@H](O)[C@H](O)[C@H]4O)[C@@H]2CC[C@]1(O[C@@H]1O[C@H](CO)[C@@H](O)[C@H](O[C@@H]2O[C@H](CO)[C@@H](O)[C@H](O)[C@H]2O)[C@H]1O[C@@H]1O[C@H](CO)[C@@H](O)[C@H](O)[C@H]1O)C3` [rebaudioside A], the “appearance (FIG. 3, bottom)” value ([1]; about 10% DS, only rebaudioside A) is listed as “intense precipitation”, the “time until solution crashes out” value [1] is listed as no more than 72 h and the “dissolved content in aqueous solution” value ([4]; purified, in water at 25° C., WO 2012/082587 A2) is listed as “about 0.8 wt %”.
For `C=C1C[C@@]23CC[C@H]4[C@@](C)(CCC[C@@]4(C)C(=O)O[C@@H]4O[C@H](CO)[C@@H](O)[C@H](O[C@@H]5O[C@H](CO)[C@@H](O)[C@H](O)[C@H]5O)[C@H]4O[C@@H]4O[C@H](CO)[C@@H](O)[C@H](O)[C@H]4O)[C@@H]2CC[C@]1(O[C@@H]1O[C@H](CO)[C@@H](O)[C@H](O[C@@H]2O[C@H](CO)[C@@H](O)[C@H](O)[C@H]2O)[C@H]1O[C@@H]1O[C@H](CO)[C@@H](O)[C@H](O)[C@H]1O)C3` [rebaudioside M], the “time until solution crashes out” value [1] is given as “less than an hour”, the “dissolved content in aqueous solution” value [4, 6] is given as “about 0.1 wt %” and the “dissolved concentration in aqueous solution” value ([4]; room temperature, freeze or spray dried, WO '480, stability over time not reported) is given as 0.5 wt %.
